One may read the pKi as the Ki on a negative log10 scale, so that one unit is a factor of ten.

pKi: −log10 of the molar value.

The target in experiment [1] is soluble human BACE1 catalytic domain (Homo sapiens (Human), UniProt P56817). Nature of the experiment: BACE1 HTRF FRET Assay. To be noted: calculated from IC50 using the Cheng-Prusoff equation; read-out: BACE-1 Ki. The format is biochemical. From the text: Na^+-Acetate pH 5.0; 1% Brij-35; Glycerol; Dimethyl Sulfoxide (DMSO); Recombinant human soluble BACE1 catalytic domain (>95% pure); APP Swedish mutant peptide substrate (QSY7-APP^swe-Eu): QSY7-[…]-Europium-amide.
A homogeneous time-resolved FRET assay was used to determine IC50 values for inhibitors of the soluble human BACE1 catalytic domain. This assay monitored the increase of 620 nm fluorescence that resulted from BACE1 cleavage of an APPswedish APP^swe mutant peptide FRET substrate (QSY7-[…]-Europium-amide). This substrate contained an N-terminal QSY7 moiety that served as a quencher of the C-terminal Europium fluorophore (620 nm Em). In the absence of enzyme activity, 620 nm fluorescence was low in the assay and increased linearly over 3 hours in the presence of uninhibited BACE1 enzyme. Inhibition of BACE1 cleavage of the QSY7-APP^swe-Eu substrate by inhibitors was manifested as a suppression of 620 nm fluorescence.
Reactions were initiated by addition of 10 μl of 600 nM QSY7-APP^swe-Eu substrate (200 nM final) to give a final reaction volume of 30 μl in a 384 well Nunc HTRF plate. The reactions were incubated at 30° C. for 1.5 hours. The 620 nm fluorescence was then read on a Rubystar HTRF plate reader (BMG Labtechnologies) using a 50 […]s delay followed by a 400 millisecond acquisition time window. Inhibitor IC50 values were derived from non-linear regression analysis of concentration response curves.

Experiment [2] has as its target purified human autoBACE-2 (Homo sapiens, UniProt Q9Y5Z0). Kind of experiment: BACE-2 Assay (BACE-HTRF assay). The class given is biochemical. To be noted: calculated from IC50 using the Cheng-Prusoff equation. The procedure: DMSO was present at 5% final concentration in the assay. Following laser excitation of sample wells at 320 nm, the fluorescence signal at 620 nm was collected for 400 ms following a 50 μs delay on a RUBYstar HTRF plate reader (BMG Labtechnologies). […] The Ki values were calculated from the IC50 using the Cheng-Prusoff equation.

Chain of purified human autoBACE-2 (Q9Y5Z0 63-518 limits assumed): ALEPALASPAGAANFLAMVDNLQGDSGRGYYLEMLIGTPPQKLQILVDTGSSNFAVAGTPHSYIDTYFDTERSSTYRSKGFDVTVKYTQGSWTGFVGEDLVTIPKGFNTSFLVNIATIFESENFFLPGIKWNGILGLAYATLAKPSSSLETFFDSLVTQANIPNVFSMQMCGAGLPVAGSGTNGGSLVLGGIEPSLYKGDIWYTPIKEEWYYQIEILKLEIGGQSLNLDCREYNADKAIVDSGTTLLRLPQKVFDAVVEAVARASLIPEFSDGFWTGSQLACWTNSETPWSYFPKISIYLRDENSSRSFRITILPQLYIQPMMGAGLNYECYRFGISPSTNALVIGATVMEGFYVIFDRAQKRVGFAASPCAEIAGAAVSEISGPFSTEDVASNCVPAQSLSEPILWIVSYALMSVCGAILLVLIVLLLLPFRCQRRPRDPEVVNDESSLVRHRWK
Chain of soluble human BACE1 catalytic domain (P56817 75-416): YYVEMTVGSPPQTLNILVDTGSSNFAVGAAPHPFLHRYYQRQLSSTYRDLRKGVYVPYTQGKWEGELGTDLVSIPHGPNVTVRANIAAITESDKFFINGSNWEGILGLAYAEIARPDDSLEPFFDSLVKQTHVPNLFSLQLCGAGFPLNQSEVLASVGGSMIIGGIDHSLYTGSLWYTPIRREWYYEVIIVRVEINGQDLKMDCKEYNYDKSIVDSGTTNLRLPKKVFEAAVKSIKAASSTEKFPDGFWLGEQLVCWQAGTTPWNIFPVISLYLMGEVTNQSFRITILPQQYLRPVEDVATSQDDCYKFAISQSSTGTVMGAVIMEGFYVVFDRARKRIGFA

In the case of `COc1nc(N2C[C@@H]3[C@](c4cc(F)c(F)cc4F)(C2)NC(=N)N(C)S3(=O)=O)nc(C)c1F` (stereo in doubt) [Ex. 5], the pKi is 7.49 in experiment [1] and 7.72 in experiment [2].

Turning to `COCc1cc(OC)nc(N2CC3[C@](c4ccccc4F)(C2)NC(=N)N(C)S3(=O)=O)c1` (some centres unmarked) [Ex. 8], the negative logarithm of the Ki (pKi) is 8.15 in experiment [1] and 8.30 in experiment [2].

Consider `CCc1nc(N2CC3C(c4ccccc4)(C2)NC(=N)N(C)S3(=O)=O)nc(OC)c1F` (racemic) [Ex. 15], for which the pKi in experiment [1] was 7.09.

As to `COc1nc(N2C[C@@H]3[C@](c4ccccc4F)(C2)NC(=N)N(C)S3(=O)=O)nc(C)c1F` (stereo in doubt) [Ex. 4], the pKi in experiment [2] is 8.27.

For `COCc1cc(OC)nc(N2C[C@@H]3[C@](c4cc(F)ccc4F)(C2)NC(=N)N(C)S3(=O)=O)c1` (stereo in doubt) [Ex. 9], the pKi in experiment [2] is 8.77.

For the compound `CC(=O)N1CC2[C@](c3cc(NC(=O)c4ccc(F)cn4)ccc3F)(C1)NC(=N)N(C)S2(=O)=O` (mixture of isomers) [Ex. 18], the pKi in experiment [1] is 7.49; in experiment [2], 8.49.

As to `COCc1cc(OC)nc(N2CC3[C@](c4cc(F)c(F)cc4F)(C2)NC(=N)N(C)S3(=O)=O)c1` (some centres unmarked) [Ex. 7], the negative logarithm of the Ki (pKi) in experiment [1] was 8.15; in experiment [2], 8.49.

On to `COc1nc(N2CC3[C@](c4ccc(F)cc4F)(C2)NC(=N)N(C)S3(=O)=O)nc(C)c1F` (some centres unmarked) [Ex. 6], for which the pKi in experiment [2] was 8.07.

Take `Cc1cccc(N2CC3C(c4ccccc4)(C2)NC(=N)N(C)S3(=O)=O)c1` (racemic) [Ex. 17]: the pKi in experiment [1] was 5.81.

For `COc1nc(N2C[C@@H]3[C@](c4ccccc4)(C2)NC(=N)N(C)S3(=O)=O)nc(C)c1F` [Ex. 1], in experiment [2], the negative logarithm of the Ki (pKi) is 7.80.

Take `COc1nc(N2CC3[C@](c4cc(NC(=O)c5ccc(F)cn5)ccc4F)(C2)NC(=N)N(C)S3(=O)=O)nc(C)c1F` (mixture of isomers) [Ex. 19]: the pKi in experiment [1] is 8.92; in experiment [2] it was 8.80.

As for `COc1nc(N2C[C@@H]3[C@](c4ccc(F)cc4)(C2)NC(=N)N(C)S3(=O)=O)nc(C)c1F` (stereo in doubt) [Ex. 2], the pKi in experiment [2] is 7.85.

Take `COc1nc(N2CC3C(c4ccccc4)(C2)NC(=N)N(C)S3(=O)=O)nc(OC)c1F` (racemic) [Ex. 13]: the pKi in experiment [1] was 7.52.

`COc1nc(N2C[C@@H]3[C@](c4cc(F)ccc4F)(C2)NC(=N)N(C)S3(=O)=O)nc(C)c1F` (stereo in doubt) [Ex. 3]: the pKi in experiment [2] is 7.85.

For the compound `CCOCc1cc(OC)nc(N2CC3C(c4ccccc4)(C2)NC(=N)N(C)S3(=O)=O)c1` (racemic) [Ex. 11], in experiment [1], the negative logarithm of the Ki (pKi) was 7.21.

(Values after patent US9145426B2, “Pyrrolidine-fused thiadiazine dioxide compounds as BACE inhibitors, compositions, and their use” (Merck Sharp & Dohme Corp., priority 2011, dated 2015).)
